Test results: the NIST ThermoML archive (doi:10.1021/je800589e)

Test: xn = mol fraction of the nth substance listed
Conditions: Ring tensiometer

CCN1CCCC1=O [1-ethyl-2-pyrrolidinone] + O
surface tension liquid-gas [mN/m]
Conditions	293.15 K	298.15 K	303.15 K	313.15 K	323.15 K
x1 = 0.0002	65.16	62.84	60.76	58.13	53.44
x1 = 0.0005	59.61	57.85	55.95	53.14	50.14
x1 = 0.001	56.3	54.77	53.23	51	49
x1 = 0.01	48.62	47.51	46.59	45.11	43.84
x1 = 0.02	44.12	43.28	42.53	41.4	40.2
x1 = 0.05	43.48	42.53	41.79	40.32	39.26
x1 = 0.1	42.11	41.22	40.42	39.3	38.32
x1 = 0.2	40.9	40.09	39.35	38.43	37.22
x1 = 0.3	40.28	39.44	38.52	37.59	36.48
x1 = 0.4	39.63	38.73	37.87	36.87	35.72
x1 = 0.5	39.25	38.23	37.31	36.2	35.26
x1 = 0.6	38.6	37.89	36.94	35.83	34.86
x1 = 0.7	38.04	37.01	36.39	35.35	34.72
x1 = 0.8	37.71	36.63	35.9	35.08	34.35
x1 = 0.9	37.09	36.17	35.63	34.72	34
x1 = 1	36.48	35.65	35	34.35	33.61

O=C1CCCN1 [2-pyrrolidinone] + O
surface tension liquid-gas [mN/m]
Conditions	293.15 K	298.15 K	303.15 K	313.15 K	323.15 K
x1 = 0.0002	60.4	58.9	57.3	55.4	53.2
x1 = 0.0006	55.69	54.6	53.93	52.2	51.05
x1 = 0.01	52.9	51.68	50.8	49.8	49.1
x1 = 0.015	52.4	51.19	50.23	49.3	48.7
x1 = 0.05	50.72	49.58	48.68	47.77	46.34
x1 = 0.07	50.26	49.28	48.45	47	45.89
x1 = 0.1	49.96	48.91	48	46.49	45.58
x1 = 0.2	48.91	48.08	47.09	45.89	45.13
x1 = 0.3	47.93	47.17	46.42	45.43	44.6
x1 = 0.4	47.54	46.87	46.19	45.28	44.53
x1 = 0.5	47.17	46.72	46.02	45.21	44.45
x1 = 0.6	47.1	46.64	45.81	44.91	44.15
x1 = 0.7	47.1	46.42	45.66	45	44.23
x1 = 0.8	46.94	46.42	45.66	44.68	43.85
x1 = 0.9	46.64	46.11	45.51	44.53	43.77
x1 = 1	46.31	45.81	45.22	44.12	43.19
